The values below come from patent publication US5380724A, “Piperazine and homopiperazine derivatives, pharmaceutical compositions containing them and process for preparing same” (Gyogyszerkutato Intezet KFT, priority 1992, dated 1995).

SMILES strings stand for the structures.

Data set [1] deals with ischemia induced weight increase of the small intestine. The data set can be described thus: inhibition of ischemia induced weight increase of a definite section in the small intestine of rats. Format: in vivo. The note with it: Rattus norvegicus, 25 mg/kg oral. As to the method:
2. […] The percentage of inhibition observed after administration of a 25 mg/kg oral dose of the compounds of the invention or of the reference compounds is shown in Table 5.

Data set [2] concerns rat brain homogenate (ferrous ion dependent lipid peroxidation). As to the kind of experiment: ferrous ion dependent lipid peroxidation inhibitory activity on rat brain homogenate (thiobarbituric acid reactive substances). Format: biochemical. The note with it: Fe2+ dependent lipid peroxidation, TBARS. As to the method: 1. The ferrous ion dependent lipid peroxidation inhibitory activity was measured on rat brain homogenate by using the method descibed by J. M. Braughler et al., [J. Biol. Chem. 262, 10438 (1987)] and J. A. Buege and S. D. […] The IC50 value is defined as the concentration of a test substance which reduces by 50% the amount of the thiobarbituric acid reactive substances (chiefly malondialdehyde) considered to be a characteristic parameter of lipid peroxidation.

Another data set deals with acute brain injury. The data set can be described thus: inhibition of acute brain injury of mice (improvement in the neurological state). The note with it: intravenous. Format: in vivo. An excerpt: 1. […] 68, 456 (1988)]. The doses of the test compounds administered by the intravenous route and the percentage of improvement in the neurological state are summarized in Table 4.

Data set [3] relates to arachidonic acid (ferrous ion dependent peroxidation). The data set can be described thus: inhibition of the ferrous ion dependent peroxidation of arachidonic acid. Format: biochemical. The conditions noted are these: Fe2+ dependent peroxidation of arachidonic acid. The procedure: 2. The inhibition of the ferrous ion dependent peroxidation of arachidonic acid was also measured by the method of J. M. Braughler et al. [J. Biol. Chem. 262, 10438 (1987)] and J. A. Buege and S. D. Aust [Methods in Enzymology 52, 302 (1978)]. The IC50 values (expressed in micromols) of some compounds of the invention, further those of the reference compounds determined in this test are shown in Table 2.

The test system of data set [4] is NADPH dependent lipid peroxidation. The data set can be described thus: inhibition of the NADPH dependent lipid peroxidation. Format: biochemical. The procedure:
3. Inhibiton of the NADPH dependent lipid peroxidation was measured according to T. J. Player and A. A. Horton [J. Neurochem. 37, 422 (1981)] and Z. Duniec [Biochem. Pharmacol. 32, 2283 (1983)]. The IC50 values (expressed in micromols) of some compounds of the invention, further those of the reference compounds determined in this test are given in Table 3.

The next data set is described as follows: acute toxicity in rats. Format: in vivo. The conditions noted are these: rat, in vivo, oral.
The subject of a further data set is rats. As to the kind of experiment: acute toxicity in rats. Format: in vivo. The note with it: 1000 mg/kg oral.

What is called inhibition in vivo is how much of the control response was suppressed. Low values mean a weak effect, high ones a strong effect. The compound `CCCCCCCCCCCCCCCCCCN1CCN(c2cc(N)nc(N)n2)CC1` [Example 4] registered an inhibition in vivo at 25 mg/kg in data set [1] of 46%.

What is called IC50 is the point on the concentration scale where inhibition reaches its midpoint. In the case of `Nc1cc(N2CCN(CC(O)COc3cccc4ccccc34)CC2)nc(N)n1` (stereo not drawn) [Example 20, 1-[2-Hydroxy-3-(1-naphthyloxy)-propyl]-4-(2,6-diamino-4-pyrimidinyl)piperazine], in data set [2], the 50% inhibitory concentration (IC50) was found to be 94 µM. The compound further came in with an inhibition in vivo at 25 mg/kg in data set [1] of 28%.

In the case of `Nc1cc(N2CCN(C(c3ccccc3)(c3ccccc3)c3ccccc3Cl)CC2)nc(N)n1` [Example 12], in data set [2], half-maximal inhibition (IC50) was put at 18 µM. In addition, the “Improvement (in the neurological state)” value in the data set on acute brain injury (10 mg/kg) stood at 46%. The compound also displayed an inhibition in vivo at 25 mg/kg in data set [1] of 52%.

On to `CCCCCCCCCCCCCCCCCC(=O)N1CCCN(c2cc(N3CCCC3)nc(N3CCCC3)n2)CC1` [Example 6], for which the inhibition in vivo at 25 mg/kg in data set [1] was determined as 25%.

Consider `CN(CC(O)CN1CCNCC1)c1ccc(-c2nc3c(N)nc(N)nc3nc2N)cc1` (stereo not drawn) [Example 53], for which the IC50 in data set [3] worked out at 0.9 µM. Besides, 25 mg/kg produced 56% inhibition in vivo in data set [1].

Consider `Nc1nc(N2CCNCC2)c2nc(-c3ccccc3)c(N)nc2n1` [Example 59, 1-(2,7-Diamino-6-phenyl-4-pteridinyl)piperazine], for which the inhibition in vivo at 25 mg/kg in data set [1] is 30%.

Compound `Nc1cc(N2CCCN(CC(O)COc3ccc4ccccc4c3)CC2)nc(N)n1` (stereo not drawn) [Example 25] gave an inhibition in vivo at 25 mg/kg in data set [1] of 35%.

As to `Cc1c(C)c2c(c(C)c1O)CCC(C)(CCCC(C)CCCC(C)CCCC(C)C)O2` (stereo not drawn) [α-tocopherol, reference compound], the IC50 in data set [2] is 7 µM; in data set [3] it was 2 µM; in data set [4], > 100 µM. Also, in the data set on acute brain injury (30 mg/kg), the “Improvement (in the neurological state)” value was 97%.

In data set [3], `Nc1nc2nc(N3CCNCC3)nc(N)c2nc1-c1ccccc1` [Example 58, 1-(4,7-Diamino-6-phenyl-2-pteridinyl)piperazine] showed a half-inhibitory concentration (IC50) of 38 µM.

As to `Cc1cc(C(C)(C)C)c(O)c(C(C)(C)C)c1` [BHT, 3,5-di(tert-butyl)-4-hydroxytoluene, reference compound], the IC50 is 1 µM in data set [2], > 100 µM in data set [3] and 2 µM in data set [4].

One may read the LD50 as the dose at which mortality reaches 50%. Low readings indicate greater toxicity, high ones lower toxicity. Take `Nc1cc(N2CCN(CC(O)COc3ccc4c(c3)CCCC4=O)CC2)nc(N)n1` (stereo not drawn) [Example 28]: in data set [1], the inhibition in vivo at 25 mg/kg was found to be 64%. Moreover, the LD50 in “acute toxicity in rats” is > 1000 mg/kg. The “death of treated animals” value in the data set on rats is reported as “did not provoke death of any of the treated animals”.

Take `CCCCCCCCCCCCCCCCCC(=O)N1CCN(c2cc(N)nc(N)n2)CC1` [Example 7]: 25 mg/kg produced 34% inhibition in vivo in data set [1].

In the case of `Nc1nc(N)c2nc(-c3ccc(NCC(O)CN4CCNCC4)cc3)c(N)nc2n1` (stereo not drawn) [Example 52], the IC50 in data set [3] worked out at 12 µM. This compound also came in with an inhibition in vivo at 25 mg/kg in data set [1] of 34%.

Consider `O=C(COc1cccc2ccccc12)N1CCCN(c2cc(N3CCCC3)nc(N3CCCC3)n2)CC1` [Example 36], for which the concentration for half-maximal inhibition (IC50) in data set [2] was found to be 30 µM. In data set [1], the inhibition in vivo at 25 mg/kg is 24%.

The compound `O=C(COc1cccc2ccccc12)N1CCN(c2cc(N3CCCC3)nc(N3CCCC3)n2)CC1` [Example 33, 1-[2-(1-Naphthyloxy)acetyl]-4-[2,6-di(1-pyrrolidinyl)-4-pyrimidinyl]piperazine] had an IC50 in data set [2] of 20 µM. In data set [1], this compound yielded an inhibition in vivo at 25 mg/kg of 53%.

The compound `Nc1nc(N)c2nc(-c3ccc(NC(=O)CN4CCNCC4)cc3)c(N)nc2n1` [Example 55] showed an inhibition in vivo at 25 mg/kg in data set [1] of 47%.

Consider `Nc1nc(N)c2nc(-c3ccc(OCC(O)CN4CCN(C56CC7CC(CC(C7)C5)C6)CC4)cc3)c(N)nc2n1` (stereo not drawn) [Example 37, 6-[4-[3-[4-(1-Adamantyl)-1-piperazinyl]-2-hydroxypropoxy]phenyl]-2,4,7-triaminopteridine], for which, in data set [3], the IC50 was determined as 17 µM. Further, in data set [1], the inhibition in vivo at 25 mg/kg is 35%.

For the compound `OC(COc1cccc2ccccc12)CN1CCCN(c2cc(N3CCCC3)nc(N3CCCC3)n2)CC1` (stereo not drawn) [Example 23], the IC50 in data set [2] is 9 µM; in data set [4] it was 13 µM. The same compound came in with an inhibition in vivo at 25 mg/kg in data set [1] of 52%.

For `Nc1nc(N)c2nc(C(=O)N3CCN(C(c4ccccc4)(c4ccccc4)c4ccccc4Cl)CC3)c(N)nc2n1` [Example 16], in data set [1], the inhibition in vivo at 25 mg/kg worked out at 45%.

For the compound `C[C@@H]1C[C@H]2[C@@H]3CCC4=CC(=O)C=C[C@]4(C)C3=CC[C@]2(C)[C@H]1C(=O)CN1CCN(c2cc(N3CCCC3)nc(N3CCCC3)n2)CC1` [Example U74006F, 21-[4-[2,6-di(1-pyrrolidinyl)-4-pyrimidinyl]-1-piperazinyl]-16α-methyl-pregna-1,4,9(11)-triene-3,20-dione, reference compound], the concentration for half-maximal inhibition (IC50) was 39 µM in data set [2], > 100 µM in data set [3] and > 100 µM in data set [4]. In addition, the “Improvement (in the neurological state)” value with acute brain injury (30 mg/kg) was found to be 77%. This compound also returned an inhibition in vivo at 25 mg/kg in data set [1] of 59%. Moreover, the 50% lethal dose (LD50) in the data set “acute toxicity in rats” was > 1000 mg/kg.

The compound `OC(COc1cccc2ccccc12)CN1CCN(c2cc(N3CCCC3)nc(N3CCCC3)n2)CC1` (stereo not drawn) [Example 22] returned an IC50 in data set [2] of 13 µM.

As for `Nc1cc(N2CCN(C(=O)COc3ccc4ccccc4c3)CC2)nc(N)n1` [Example 34], the inhibition in vivo at 25 mg/kg in data set [1] was determined as 69%. The LD50 in “acute toxicity in rats” is > 1000 mg/kg. Also, the “death of treated animals” value with rats is reported as “did not provoke death of any of the treated animals”.

Take `O=C1CCCc2cc(OCC(O)CN3CCCN(c4cc(N5CCCC5)nc(N5CCCC5)n4)CC3)ccc21` (stereo not drawn) [Example 30]: the results for the IC50 in data set [2] and in data set [4] were 12 µM and 16 µM, respectively. In data set [1], this compound returned an inhibition in vivo at 25 mg/kg of 42%.

Turning to `O=c1[nH]ncc(N2CCN(C34CC5CC(CC(C5)C3)C4)CC2)c1Cl` [Example 18, 1-(1-Adamantyl)-4-(4-chloro-3-oxo-2,3-dihydro-5-pyridazinyl)piperazine], testing at 25 mg/kg in data set [1] gave an inhibition in vivo of 31%.

In turn, `Nc1cc(N2CCN(C(c3ccccc3)(c3ccccc3)c3ccccc3)CC2)nc(N)n1` [Example 9, 1-Trityl-4-(2,6-diamino-4-pyrimidinyl)piperazine] registered a half-inhibitory concentration (IC50) in data set [2] of 51 µM. The same compound displayed an inhibition in vivo at 25 mg/kg in data set [1] of 37%.

Regarding `Nc1nc2nc(N3CCN(C(c4ccccc4)(c4ccccc4)c4ccccc4Cl)CC3)nc(N)c2nc1-c1ccccc1` [Example 15], the inhibition in vivo at 25 mg/kg in data set [1] is 32%.

Take `Nc1nc(N)c2nc(-c3ccc(OCC(O)CN4CCN(C(c5ccccc5)(c5ccccc5)c5ccccc5Cl)CC4)cc3)c(N)nc2n1` (stereo not drawn) [Example 39]: testing at 25 mg/kg in data set [1] gave an inhibition in vivo of 34%.

Compound `Nc1cc(N2CCN(CC(O)COc3ccc4ccccc4c3)CC2)nc(N)n1` (stereo not drawn) [Example 24] yielded an inhibition in vivo at 25 mg/kg in data set [1] of 20%.

As to `Nc1cc(N2CCN(C(=O)COc3cccc4ccccc34)CC2)nc(N)n1` [Example 31, 1-[2-(1-Naphthyloxy)acetyl]-4-(2,6-diamino-4-pyrimidinyl)piperazine], in data set [1], at 25 mg/kg the inhibition in vivo was 79%.

Compound `C=CCCCCCCCCC(=O)N1CCN(c2cc(N)nc(N)n2)CC1` [Example 3, 1-(10-Undecenoyl)-4-(2,6-diamino-4-pyrimidinyl)-piperazine] returned an IC50 in data set [2] of 52 µM. This compound also gave an inhibition in vivo at 25 mg/kg in data set [1] of 31%.

For `Cc1c(C)c2c(c(C)c1O)CCC(C)(CN1CCN(c3cc(N4CCCC4)nc(N4CCCC4)n3)CC1)O2` (stereo not drawn) [Example U78517F, 2-[[4-[2,6-di(1-pyrrolidinyl)-4-pyrimidinyl]-1-piperazinyl]methyl]-6-hydroxy-2,5,7,8-tetramethyl-3,4-dihydro-2H-1-benzopyrane, reference compound], the IC50 in data set [2] is 0.3 µM; in data set [3], > 50 µM; in data set [4], 0.7 µM. For the same compound, the “Improvement (in the neurological state)” value in the data set on acute brain injury (20 mg/kg) is on record as 31%. Moreover, the inhibition in vivo at 25 mg/kg in data set [1] came out at 20%.

Regarding `OC(COc1ccc2ccccc2c1)CN1CCN(c2cc(N3CCCC3)nc(N3CCCC3)n2)CC1` (stereo not drawn) [Example 26], the IC50 in data set [2] came out at 19 µM; in data set [4] it was 59 µM. Further, the inhibition in vivo at 25 mg/kg in data set [1] stood at 45%.

As to `Nc1nc(N)c2nc(-c3ccc(OCC(O)CN4CCCNCC4)cc3)c(N)nc2n1` (stereo not drawn) [Example 51], 28 µM corresponded to half-maximal inhibition in data set [3] (IC50).

On to `Nc1nc2nc(N3CCN(C45CC6CC(CC(C6)C4)C5)CC3)nc(N)c2nc1-c1ccccc1` [Example 57, 1-(1-Adamantyl)-4-(4,7-diamino-6-phenyl-2-pteridinyl)piperazine], for which half-maximal inhibition in data set [3] (IC50) required 49 µM.

For `Nc1nc(N)c2nc(-c3ccc(NCCCN4CCNCC4)cc3)c(N)nc2n1` [Example 56, 6-[4-[3-(1-Piperazinyl)propylamino]phenyl]-2,4,7-triamino-pteridine], in data set [1], the inhibition in vivo at 25 mg/kg amounted to 44%.

In data set [1], `c1ccc(C(c2ccccc2)(c2ccccc2)N2CCCN(c3cc(N4CCCC4)nc(N4CCCC4)n3)CC2)cc1` [Example 11] showed an inhibition in vivo at 25 mg/kg of 57%.

In data set [3], `Nc1nc(N)c2nc(-c3ccc(SCC(O)CN4CCNCC4)cc3)c(N)nc2n1` (stereo not drawn) [Example 54] came in with an IC50 of 17 µM. Besides, the inhibition in vivo at 25 mg/kg in data set [1] came out at 56%.
